ChEMBL document CHEMBL1667728, “Stachylines A-D from the sponge-derived fungus Stachylidium sp” (J Nat Prod, 2011)
Active and inactive are the calls of the source. The calls are words filed in the database; no cut-off is given here.

Tests used:
[1] = tested on: Human immunodeficiency virus; assay: Antiviral activity against HIV; format: functional, organism-based
[2] = tested on: Influenza A virus; assay: Antiviral activity against Influenza virus; format: functional, organism-based

In the case of `C=C(C)[C@H](O)COc1ccc(CCO)cc1`, the Activity [1] is reported as “inactive” and the Activity [2] is reported as “inactive”.

In the case of `C=C(C)[C@H](O)COc1ccc(CC=NO)cc1` (mixture of isomers), the Activity [1] is reported as “inactive” and the Activity [2] is reported as “inactive”.

For `C=C(C)[C@H](O)COc1ccc(CC(=O)O)cc1`, the Activity [1] was “inactive” and the Activity [2] was “inactive”.
